PubChem BioAssay AID651650 (Sanford-Burnham Center for Chemical Genomics, 2012)
Active and inactive are the calls of the source.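 Rule for the calls: active = mean IC50 below 20 µM in each of the two panels, so potent in both; inactive = the rest.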

Target: Neuropilin-1 (Homo sapiens) (UniProt O14786)
Test: NRP-1 b1b2 CendR peptide binding inhibitors, dose response, biochemical, FP and AlphaScreen panel (AID 651650)
Conditions: NRP-1 b1b2 / RPARPAR peptide binding, FP or AlphaScreen
[1] = AlphaScreen, run 1, individual panel run IC50
[2] = FP, run 1, individual panel run IC50
[3] = FP, run 2, individual panel run IC50

Sequence of Neuropilin-1 (Homo sapiens) (O14786 whole entry, looked up): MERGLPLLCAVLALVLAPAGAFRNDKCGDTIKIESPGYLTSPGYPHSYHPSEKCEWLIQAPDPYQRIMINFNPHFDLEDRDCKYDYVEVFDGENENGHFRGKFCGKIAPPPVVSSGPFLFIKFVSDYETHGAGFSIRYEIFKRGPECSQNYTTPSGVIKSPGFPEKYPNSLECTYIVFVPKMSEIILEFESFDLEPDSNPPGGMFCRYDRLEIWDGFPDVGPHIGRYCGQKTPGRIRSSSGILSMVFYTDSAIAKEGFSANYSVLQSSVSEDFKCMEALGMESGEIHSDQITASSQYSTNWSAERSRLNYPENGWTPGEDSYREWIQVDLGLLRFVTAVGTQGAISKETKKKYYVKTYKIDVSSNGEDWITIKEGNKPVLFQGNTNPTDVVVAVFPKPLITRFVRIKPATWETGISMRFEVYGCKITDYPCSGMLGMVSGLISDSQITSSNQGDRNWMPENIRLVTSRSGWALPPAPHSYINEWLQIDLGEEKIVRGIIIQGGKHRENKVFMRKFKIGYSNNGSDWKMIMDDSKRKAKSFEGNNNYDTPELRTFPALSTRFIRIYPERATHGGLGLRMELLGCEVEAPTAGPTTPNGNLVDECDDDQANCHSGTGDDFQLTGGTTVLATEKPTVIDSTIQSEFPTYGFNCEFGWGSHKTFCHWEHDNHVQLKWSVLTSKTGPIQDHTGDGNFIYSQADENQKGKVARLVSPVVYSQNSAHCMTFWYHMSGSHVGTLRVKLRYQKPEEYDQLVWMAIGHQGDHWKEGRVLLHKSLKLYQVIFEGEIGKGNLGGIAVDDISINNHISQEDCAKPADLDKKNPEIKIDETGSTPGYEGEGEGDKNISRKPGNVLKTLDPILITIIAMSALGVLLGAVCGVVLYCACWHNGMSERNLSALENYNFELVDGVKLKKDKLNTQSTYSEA

Row | SMILES | IC50 (AlphaScreen, mean of runs) | IC50 [1] [µM] | IC50 (FP, mean of runs) | IC50 [2] [µM] | IC50 [3] [µM]
1 | O=C1CCC/C=C\C[C@@H](CC(=O)N(CCO)Cc2ccccc2)C(=O)N2CCC[C@H]2CO1 | > 100 µM (inactive) | > 100 | > 95 µM (inactive) | > 95 | > 95
2 | N/C(CSc1ccc(Cl)cc1)=N\S(=O)(=O)c1ccc(Cl)cc1 | > 100 µM (inactive) | > 100 | > 95 µM (inactive) | > 95 | > 95
3 | CCOC(=O)Cn1c(=O)n(Cc2ccco2)c(=O)c2ccc(C(=O)NC3CCCC3)cc21 | inactive | 63.7 | > 95 µM (inactive) | > 95 | > 95
4 | NC(N)=NCCC[C@H](NC(=O)OCc1ccccc1)C(=O)O | > 100 µM (inactive) | > 100 | > 95 µM (inactive) | > 95 | > 95
5 | O=C(O)CCSc1nnc(COc2cccc3cccnc23)n1-c1ccccc1 | > 100 µM (inactive) | > 100 | > 95 µM (inactive) | > 95 | > 95
6 | Cc1cc2cc(CNC(=O)c3ccco3)ccc2n1C | > 100 µM (inactive) | > 100 | > 95 µM (inactive) | > 95 | > 95
7 | COC(=O)CCCC1=CC2=CC(=O)C(C)(OC(=O)c3cccs3)C(=O)C2=CN1CCCOC(C)C (stereo not given) | 5.63 µM | 5.63 | > 95 µM (inactive) | > 95 | > 95
8 | Cc1ccsc1C(=O)N1CCCC(CO)(Cc2ccccc2F)C1 (stereo not given) | > 100 µM (inactive) | > 100 | > 95 µM (inactive) | > 95 | > 95
9 | COc1cc(C(=O)Nc2cc3c(cc2N2CCCCC2)n(C)c(=O)n3C)cc(OC)c1OC | inactive | 85 | > 95 µM (inactive) | > 95 | > 95
10 | CCO[C@@H]1OC(C(=O)NCc2ccccc2)=C[C@H](c2ccc(Br)cc2)[C@H]1CCCO | inactive | 22.1 | > 95 µM (inactive) | > 95 | > 95
11 | O=C(O)c1cc(NCc2ccc(F)cc2)ccc1N1CCOCC1 | > 100 µM (inactive) | > 100 | > 95 µM (inactive) | > 95 | > 95
12 | COc1cccc(OCC(=O)NNC(=S)Nc2ccc(Cl)cc2Cl)c1 | > 100 µM (inactive) | > 100 | > 95 µM (inactive) | > 95 | > 95
13 | COc1ccc(CN2C(=O)c3ccccc3C2=O)cc1C(=O)Nc1ccccc1N1CCOCC1 | > 100 µM (inactive) | > 100 | > 95 µM (inactive) | > 95 | > 95
14 | CCCNC(=O)[C@H]1N2C(=O)c3c(ccc(OC)c3OC)C2SC1(C)C (stereo not given in full) | inactive | 62.5 | > 95 µM (inactive) | > 95 | > 95
15 | CCOC(=O)Cc1cnc(NC(=O)NC(C(=O)OCC)(c2ccccc2)C(F)(F)F)s1 (stereo not given) | inactive | 25.1 | > 95 µM (inactive) | > 95 | > 95
16 | O=C(CSC1CN(C(c2ccccc2)c2ccccc2)C1)N/N=C/c1ccccc1 | 5.56 µM | 5.56 | > 95 µM (inactive) | > 95 | > 95
17 | COc1cccc(NC(=O)CSc2nc(O)c(C)c(=O)n2-c2ccc(C)cc2)c1 | > 100 µM (inactive) | > 100 | inactive | 20.1 | > 95
18 | CCOC(=O)C1CCN(S(=O)(=O)c2ccc3c(c2)CCN3C(=O)C2CCC2)CC1 | > 100 µM (inactive) | > 100 | > 95 µM (inactive) | > 95 | > 95
19 | COc1cc2oc(=O)ccc2cc1[C@@H](O)[C@@H]1OC(C)(C)OC1(C)C | > 100 µM (inactive) | > 100 | > 95 µM (inactive) | > 95 | > 95
20 | O=C(COC(=O)c1ccccn1)c1ccc([N+](=O)[O-])cc1 | > 100 µM (inactive) | > 100 | > 95 µM (inactive) | > 95 | > 95
21 | O=[N+]([O-])c1ccc(Cc2ccncc2)cc1 | > 100 µM (inactive) | > 100 | > 95 µM (inactive) | > 95 | > 95
22 | C=CCN1C(=O)C2(C(C(=O)OCC)=C(N)Oc3ccccc32)c2c1c1ccccc1oc2=O (stereo not given) | > 100 µM (inactive) | > 100 | > 95 µM (inactive) | > 95 | > 95

Row | SMILES | IC50 (AlphaScreen, mean of runs) | IC50 [1] [µM] | IC50 (FP, mean of runs) | IC50 [2] [µM] | IC50 [3] [µM]
23 | CCn1cc(C(=O)N2CCN(C(=O)c3ccco3)CC2)c2cc(OC)c(OC)cc2c1=O | inactive | 25.4 | > 95 µM (inactive) | > 95 | > 95
24 | CCN(CC)C(=O)CSc1nnc(-c2c[nH]c3ccccc23)o1 | > 100 µM (inactive) | > 100 | > 95 µM (inactive) | > 95 | > 95
25 | c1ccc2c(c1)CCCN2Cc1nnnn1CC1CCCO1 (stereo not given) | inactive | 25.8 | inactive | 33.9 | > 95
26 | CC1CCC(NC(=O)CSc2nncn2C)CC1 (stereo not given) | > 100 µM (inactive) | > 100 | > 95 µM (inactive) | > 95 | > 95
27 | CCOC(=O)C1=C(C)NC2=C(C(=O)CCC2)C1c1cn(Cc2ccc(Cl)cc2Cl)nc1-c1ccccc1 (stereo not given) | inactive | 35.5 | > 95 µM (inactive) | > 95 | > 95
28 | CC(=NN(Cc1ccccc1)c1ccccc1)c1ccccc1 | inactive | 41.3 | > 95 µM (inactive) | > 95 | > 95
29 | Cc1cc2cc(CNC(=O)c3ccc(S(=O)(=O)N4CCOCC4)cc3)ccc2n1C | > 100 µM (inactive) | > 100 | > 95 µM (inactive) | > 95 | > 95
30 | Cc1ccc(C2(O)CCN3CCCCC32)cc1 (stereo not given) | > 100 µM (inactive) | > 100 | > 95 µM (inactive) | > 95 | > 95
31 | CC(C)(C)C(=O)c1cnc(Nc2ccccc2)s1 | > 100 µM (inactive) | > 100 | > 95 µM (inactive) | > 95 | > 95
32 | CC(C)(C)c1nc(SCC(=O)NCc2ccco2)c2ccccc2n1 | inactive | 28 | > 95 µM (inactive) | > 95 | > 95
33 | CC1(c2ccccc2)CC(C)(C)n2c(O)c(C3=NC(=S)NC3=O)c3cccc1c32 (stereo not given) | > 100 µM (inactive) | > 100 | > 95 µM (inactive) | > 95 | > 95
34 | C#CCOc1nc(C)cc(C)c1S(=O)(=O)c1ccccc1C | > 100 µM (inactive) | > 100 | > 95 µM (inactive) | > 95 | > 95
35 | Cc1ccccc1Nc1nc(N)nc(COC(=O)CC2CC3CCC2C3)n1 (stereo not given) | > 100 µM (inactive) | > 100 | > 95 µM (inactive) | > 95 | > 95
36 | COc1ccc(-c2csc(NC(CO)c3nc4ccccc4n3CCCO)n2)cc1 (stereo not given) | > 100 µM (inactive) | > 100 | > 95 µM (inactive) | > 95 | > 95
37 | Cc1ccccc1Oc1ccc2c(c1)[C@@H]1C[C@H](N(C)C(=O)Nc3cc(Cl)cc(Cl)c3)[C@H]([C@H](C)O)C(=O)N1CC2 | 12.3 µM | 12.3 | > 95 µM (inactive) | > 95 | > 95
38 | CCC1=C(OC(=O)N(CC)CC)N2C(=O)OC(=NCC(=O)OC)[C@]2(Cc2ccccc2)[C@H]2C1=CC[C@H]1C(=O)N(CC(=O)OC)C(=O)[C@H]12 | inactive | 64.8 | > 95 µM (inactive) | > 95 | > 95
39 | O=C(NNC(=O)c1ccccc1Cl)c1cccnc1 | 19.2 µM | 19.2 | > 95 µM (inactive) | > 95 | > 95
40 | CC(=O)OC[C@@H]1CN(Cc2cccc(C(F)(F)F)c2)C[C@H](n2cnc3c(NCc4ccco4)ncnc32)O1 | inactive | 87.9 | > 95 µM (inactive) | > 95 | > 95
41 | Cc1nnc(NC(=O)c2ccccc2C(=O)O)s1 | 16.6 µM | 16.6 | > 95 µM (inactive) | > 95 | > 95
42 | CCC1=C(OC(=O)N(CC)CC)N2C(=O)OC(=NCC(=O)OC)[C@]2(C)[C@H]2C1=CC[C@H]1C(=O)N(CC)C(=O)[C@H]12 | > 100 µM (inactive) | > 100 | > 95 µM (inactive) | > 95 | > 95
43 | O=C(CCc1ccc(Oc2cc([N+](=O)[O-])cc([N+](=O)[O-])c2)cc1)N1CCCCCC1 | 11.6 µM | 11.6 | > 95 µM (inactive) | > 95 | > 95
44 | O=C(CSc1nc2ccccc2n1Cc1ccccc1Cl)N/N=C/c1ccccc1C(=O)O | inactive | 39.2 | > 95 µM (inactive) | > 95 | > 95
